Measurements taken from publication PMC9774391 (ACS Omega, 2022).

Columns and labels:
AChE = AChE (Homo sapiens, UniProt P22303); experiment: biochemical; conditions: for inhibition at 1000 µM: 10^–3 M; for inhibition at 100 µM: 10^–4 M; for inhibition at 10 µM: 10^–5 M; for inhibition at 1 µM: 10^–6 M; for inhibition at 0.1 µM: 10^–7 M; for inhibition at 0.01 µM: 10^–8 M; for inhibition at 0.001 µM: 10^–9 M
Method: (§1) According to the modified Ellman approach outlined in our team’s earlier work, the AChE and BChE inhibitory activities of the obtained compounds were evaluated.[18]−[21]

BChE [1] = target: T1, BChE (Homo sapiens, UniProt P06276); experiment: biochemical; conditions: for inhibition at 1000 µM: 10^–3 M; for inhibition at 100 µM: 10^–4 M; for inhibition at 10 µM: 10^–5 M; for inhibition at 1 µM: 10^–6 M; for inhibition at 0.1 µM: 10^–7 M; for inhibition at 0.01 µM: 10^–8 M; for inhibition at 0.001 µM: 10^–9 M
Method: as §1

MAO-A = target: T2, MAO-A (Homo sapiens, UniProt P21397); experiment: In vitro MAO-A inhibition assay (fluorometric); assay type: biochemical; conditions: for inhibition at 1000 µM: 10^–3 M; for inhibition at 100 µM: 10^–4 M
T2 sequence (P21397 1-527): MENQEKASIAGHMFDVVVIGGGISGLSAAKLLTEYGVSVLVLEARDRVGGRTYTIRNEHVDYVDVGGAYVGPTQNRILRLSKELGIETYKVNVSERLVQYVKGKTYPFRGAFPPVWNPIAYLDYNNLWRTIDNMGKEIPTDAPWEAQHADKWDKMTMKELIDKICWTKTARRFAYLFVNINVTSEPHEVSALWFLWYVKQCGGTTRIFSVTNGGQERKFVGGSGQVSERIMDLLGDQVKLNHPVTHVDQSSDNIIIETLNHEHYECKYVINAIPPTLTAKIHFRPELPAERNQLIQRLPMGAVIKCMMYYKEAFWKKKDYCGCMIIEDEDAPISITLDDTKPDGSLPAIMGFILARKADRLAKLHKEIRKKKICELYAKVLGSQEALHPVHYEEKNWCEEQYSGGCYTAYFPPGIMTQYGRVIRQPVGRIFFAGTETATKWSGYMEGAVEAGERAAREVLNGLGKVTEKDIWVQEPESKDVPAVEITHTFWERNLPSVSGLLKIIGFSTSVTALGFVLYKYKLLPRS

MAO-B [2] = target: T3, MAO-B (Homo sapiens, UniProt P27338); experiment: In vitro MAO-B inhibition assay (fluorometric); assay type: biochemical; conditions: for inhibition at 1000 µM: 10^–3 M; for inhibition at 100 µM: 10^–4 M; for inhibition at 10 µM: 10^–5 M; for inhibition at 1 µM: 10^–6 M; for inhibition at 0.1 µM: 10^–7 M; for inhibition at 0.01 µM: 10^–8 M; for inhibition at 0.001 µM: 10^–9 M
T3 sequence (P27338 1-520): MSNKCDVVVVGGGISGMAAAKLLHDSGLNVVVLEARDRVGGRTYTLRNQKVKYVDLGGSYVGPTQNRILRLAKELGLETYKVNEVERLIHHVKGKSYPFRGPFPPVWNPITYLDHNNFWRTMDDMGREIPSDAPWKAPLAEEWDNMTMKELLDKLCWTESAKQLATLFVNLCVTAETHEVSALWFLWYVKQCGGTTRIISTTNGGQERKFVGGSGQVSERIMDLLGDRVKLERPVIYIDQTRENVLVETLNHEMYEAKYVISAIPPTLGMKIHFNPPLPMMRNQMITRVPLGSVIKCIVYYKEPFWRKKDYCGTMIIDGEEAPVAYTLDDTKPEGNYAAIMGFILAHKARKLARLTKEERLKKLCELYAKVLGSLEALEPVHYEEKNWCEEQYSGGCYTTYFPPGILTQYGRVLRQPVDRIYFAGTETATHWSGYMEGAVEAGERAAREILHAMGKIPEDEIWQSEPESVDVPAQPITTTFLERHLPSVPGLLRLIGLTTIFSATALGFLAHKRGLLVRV

MAO-B [3] = target: T3, MAO-B; experiment: Enzyme kinetics on MAO-B (Lineweaver–Burk); assay type: biochemical
Method: (§2) The experimental procedures used in the kinetic investigations were identical to those used in the inhibition experiments. […]. Acetylthiocholine iodide (ATC) and butyrylthiocholine iodide (BTC) solutions were utilized as the substrates for the ChE enzymes, with serial dilutions at six different concentrations (600, 300, 150, 75, 37.5, and 18.75 μM). The tyramine substrate solution (concentrations ranging from 20 to 0.625 μM) was produced for the MAO enzymes at six different concentrations. Separate measurements were conducted both with and without an inhibitor. Using the Microsoft Office Excel 2013 program, the resulting absorbance values were compared to various substrate concentrations, and Lineweaver–Burk plots were created.[19]−[22]
(§3) The absorbance data from the experiments and the substrate concentrations were used to generate Lineweaver–Burk plots. The graphic’s x-axis stands for 1/[S] […] […]. The intersection of these four lines on the diagram was used to define the type of substrate and inhibitor reaction against the enzyme.
(§4) Reversible and irreversible inhibition of enzymes are the two categories that inhibition is commonly subdivided into. In irreversible inhibition, the inhibitor either creates a recalcitrant complex structure or establishes a covalent bond with the enzyme. […]

[4] = DPPH free-radical scavenging activity assay; conditions: serial dilution 10^–3–10^–9 M; read-out: IC50 on DPPH antioxidant activity
Method: This approach is based on evaluating the free-radical scavenging abilities of the stable 1,1-diphenyl-2-picrylhydrazyl (DPPH) radical. To create the DPHH solution, 9.86 mg of DPPH was weighed and diluted to 25 mL with methanol. The test wells were then filled with 100 μL of the DPPH solution and 100 μL of the test solutions. Only 200 μL of methanol was used for the blank reading, while the control reading required the usage of 100 μL each of methanol and the DPPH solution. Following incubation, a spectrophotometric measurement at 517 nm was carried out.[26],[27]

Beta Amyloid 1–42 (Aβ42) = target: T4, Beta Amyloid 1–42 (Aβ42) (Homo sapiens, UniProt P05067); experiment: Beta Amyloid 1–42 (Aβ42) inhibitor screening assay; assay type: biochemical; conditions: for inhibition at 100 µM: 10^–4 M
T4 construct: The Beta Amyloid 1–42 (Aβ42) Ligand Screening Assay kit; purchased BioVision, Milpitas, CA
Text: The Beta Amyloid 1–42 (Aβ42) Ligand Screening Assay kit (BioVision, Milpitas, CA) technique based on the fluorometric approach served as the basis for the experimental process.[21],[28],[29]

Cytotoxicity test (MTT) = assay type: cell-based; conditions: NIH/3T3 mouse embryonic fibroblast cells (ATCC CRL-1658), NIH/3T3 mouse fibroblast healthy cell line
Method: The NIH/3T3 cells were incubated according to the manufacturer’s recommendations. In 96-well plates, NIH/3T3 cells were seeded at a density of 1 × 10^4 cells per well. The MTT test was conducted in line with the previously mentioned standards.[19],[22],[23],[28],[30]

BChE [5] = target: T1, BChE; experiment: Enzyme kinetics on BChE (Lineweaver–Burk); assay type: biochemical
Method: as §2, §3, §4

[6] = read-out: % β-amyloid plaque inhibition

T1 sequence (P06276 29-602): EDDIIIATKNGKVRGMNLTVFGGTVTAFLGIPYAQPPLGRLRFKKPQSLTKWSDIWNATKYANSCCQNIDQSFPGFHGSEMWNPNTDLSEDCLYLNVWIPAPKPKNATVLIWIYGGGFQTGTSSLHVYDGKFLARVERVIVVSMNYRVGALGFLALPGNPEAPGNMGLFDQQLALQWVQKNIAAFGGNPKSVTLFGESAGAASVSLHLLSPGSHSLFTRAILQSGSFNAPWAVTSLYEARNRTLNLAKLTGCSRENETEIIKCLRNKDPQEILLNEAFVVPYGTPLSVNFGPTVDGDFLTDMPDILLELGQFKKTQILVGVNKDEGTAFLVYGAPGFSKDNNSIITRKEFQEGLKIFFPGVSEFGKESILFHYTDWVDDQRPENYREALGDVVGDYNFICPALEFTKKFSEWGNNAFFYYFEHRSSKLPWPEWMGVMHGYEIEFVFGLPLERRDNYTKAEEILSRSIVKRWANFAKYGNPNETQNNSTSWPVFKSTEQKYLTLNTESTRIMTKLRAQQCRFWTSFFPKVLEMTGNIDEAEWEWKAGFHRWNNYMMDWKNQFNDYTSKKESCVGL
T4 sequence (P05067 672-713 limits assumed): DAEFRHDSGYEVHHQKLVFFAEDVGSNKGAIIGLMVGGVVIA
Sequence of AChE (P22303 32-614): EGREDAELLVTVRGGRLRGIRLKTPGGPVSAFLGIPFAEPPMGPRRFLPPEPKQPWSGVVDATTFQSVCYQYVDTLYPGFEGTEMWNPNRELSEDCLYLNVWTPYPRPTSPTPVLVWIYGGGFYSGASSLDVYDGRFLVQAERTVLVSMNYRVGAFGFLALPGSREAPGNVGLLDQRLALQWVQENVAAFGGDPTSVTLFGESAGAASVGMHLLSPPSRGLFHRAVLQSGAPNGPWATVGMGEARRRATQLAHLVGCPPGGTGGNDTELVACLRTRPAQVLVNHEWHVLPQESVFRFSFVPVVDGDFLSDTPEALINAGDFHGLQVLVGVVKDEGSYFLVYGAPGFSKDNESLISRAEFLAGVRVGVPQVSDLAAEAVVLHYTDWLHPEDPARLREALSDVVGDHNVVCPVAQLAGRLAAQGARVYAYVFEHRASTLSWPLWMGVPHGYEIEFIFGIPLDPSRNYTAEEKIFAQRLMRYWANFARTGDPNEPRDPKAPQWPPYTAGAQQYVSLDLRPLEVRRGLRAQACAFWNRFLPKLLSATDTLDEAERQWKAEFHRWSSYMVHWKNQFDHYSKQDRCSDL

| SMILES | IC50 (AChE) [nM] | inhibition at 1000 µM (AChE) [%] | inhibition at 100 µM (AChE) [%] | inhibition at 10 µM (AChE) [%] | inhibition at 1 µM (AChE) [%] | inhibition at 0.1 µM (AChE) [%] | inhibition at 0.01 µM (AChE) [%] | inhibition at 0.001 µM (AChE) [%] | IC50 (BChE [1]) [nM] | inhibition at 1000 µM (BChE [1]) [%] | inhibition at 100 µM (BChE [1]) [%] | inhibition at 10 µM (BChE [1]) [%] | inhibition at 1 µM (BChE [1]) [%] | inhibition at 0.1 µM (BChE [1]) [%] | inhibition at 0.01 µM (BChE [1]) [%] | inhibition at 0.001 µM (BChE [1]) [%] | inhibition at 1000 µM (MAO-A) [%] | inhibition at 100 µM (MAO-A) [%] | IC50 (MAO-B [2]) [nM] | inhibition at 1000 µM (MAO-B [2]) [%] | other results |
| --- | --- | --- | --- | --- | --- | --- | --- | --- | --- | --- | --- | --- | --- | --- | --- | --- | --- | --- | --- | --- | --- |
| COc1ccc2c(c1)C/C(=C\c1ccc(NC(=O)CN(C)CCCN(C)C)cc1)C2=O [D37] | 48.2 ± 1.7 | 92.5 ± 1.57 | 87.6 ± 1.68 | 83.5 ± 1.23 | 75.1 ± 1.08 | 61.5 ± 0.965 | 39.5 ± 0.489 | 19.7 ± 0.508 | 83.9 ± 3.4 | 94.2 ± 1.39 | 89.7 ± 1.25 | 82.7 ± 1.01 | 71.4 ± 1.35 | 59.3 ± 0.754 | 32.5 ± 0.355 | 18.5 ± 0.471 | 96.51 ± 0.736 | 37.8 ± 0.96 | 31.2 ± 0.8 | 98.4 ± 1.63 | inhibition at 100 µM (MAO-B [2]): 91.6 ± 1.24%; inhibition at 10 µM (MAO-B [2]): 85.5 ± 1.12%; inhibition at 1 µM (MAO-B [2]): 78.3 ± 1.07%; inhibition at 0.1 µM (MAO-B [2]): 72.2 ± 1.1%; inhibition at 0.01 µM (MAO-B [2]): 40.1 ± 0.561%; inhibition at 0.001 µM (MAO-B [2]): 18.2 ± 0.418%; type of inhibition of MAO-B (MAO-B [3]; Lineweaver–Burk plots): noncompetitive inhibition; Ki (MAO-B [3]; secondary plot of Lineweaver–Burk data, read-out: steady-state inhibition constant (Ki), MAO-B): 29.7 nM; IC50 [4]: 179 ± 7 nM; inhibition at 100 µM (Beta Amyloid 1–42 (Aβ42); [6]): > 50%; IC50 (Cytotoxicity test (MTT)): 2290 ± 136 nM |
| COc1cc2c(cc1OC)C(=O)/C(=C/c1ccc(NC(=O)CN(C)CCCN(C)C)cc1)C2 [D39] | 45.8 ± 0.9 | 92.6 ± 1.62 | 88.7 ± 1.19 | 81.7 ± 1.16 | 73.3 ± 0.952 | 64.3 ± 0.687 | 40.2 ± 0.528 | 20.5 ± 0.492 | 75 ± 3.2 | 92.8 ± 1.36 | 87.3 ± 1.25 | 81.4 ± 1.33 | 73.7 ± 1.15 | 55.4 ± 0.678 | 34.7 ± 0.511 | 21.6 ± 0.485 | 89.8 ± 1.44 | 36.2 ± 0.756 | 39.3 ± 1.1 | 95.3 ± 1.06 | inhibition at 100 µM (MAO-B [2]): 87.2 ± 1.82%; inhibition at 10 µM (MAO-B [2]): 84.8 ± 1.64%; inhibition at 1 µM (MAO-B [2]): 78.6 ± 1.25%; inhibition at 0.1 µM (MAO-B [2]): 60.2 ± 0.956%; inhibition at 0.01 µM (MAO-B [2]): 36.2 ± 0.488%; inhibition at 0.001 µM (MAO-B [2]): 25.6 ± 0.359%; type of inhibition of BChE (BChE [5]; Lineweaver–Burk plots): mixed inhibition; Ki (BChE [5]; secondary plot of Lineweaver–Burk data, read-out: steady-state inhibition constant (Ki), BChE): 61.7 nM; inhibition at 1000 µM (Beta Amyloid 1–42 (Aβ42); 10^–3 M, read-out: % β-amyloid plaque inhibition): ≥ 80%; inhibition at 100 µM (Beta Amyloid 1–42 (Aβ42); [6]): 69.8 ± 0.778%; IC50 (Beta Amyloid 1–42 (Aβ42); read-out: IC50 on β-amyloid plaque aggregation): 197 ± 7.9 nM; IC50 (Cytotoxicity test (MTT)): 12300 ± 416 nM |
